# Assay results published in PMC3494675, “Structure-Function Analysis of the Glioma Targeting NFL-TBS.40-63 Peptide Corresponding to the Tubulin-Binding Site on the Light Neurofilament Subunit” (PLoS ONE, 2012).
# Square brackets hold non-standard residues; d marks the D form. Peptide text beside a SMILES is read from it. * marks the point of attachment. Biotin = O=C1N[C@H]2[C@H](CS[C@H]2CCCCC(=O)*)N1; pS = N[C@@H](COP(=O)(O)O)C(=O)O
# How the values were obtained:
# [1] = tested on: T98G human glioblastoma cells; test: Disintegration of the microtubule network in T98G cells (anti-tubulin immunostaining, cell counting); assay type: cell-based; details: 6 hours; for Disintegration of MT (% of cells): T98G cells, 10 µM biotinylated peptide, anti-tubulin immunostaining, minimum 200 cells per experiment, mean ± S.E.M., triplicated; for Effect on MT network of T98G / glioma cells (in words): 10 µM, immunocytochemistry
# Outline: (§1)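 Cells on cover slips were cultured 6 h with 10 μM biotinylated peptide, permeabilized, and stained with anti-β-tubulin plus fluorescent streptavidin. By fluorescence/confocal microscopy, ≥200 cells per experiment were scored for peptide uptake and for a normal versus destroyed microtubule network; at least three repeats.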
# [2] = tested on: T98G human glioblastoma cells; test: Peptide incorporation into T98G cells (immunocytochemistry, cell counting); assay type: cell-based; details: 6 hours; for Peptide incorporation (% of cells): T98G cells, 10 µM biotinylated peptide, Alexa-labeled avidin/streptavidin fluorescence microscopy, minimum 200 cells per experiment, mean ± S.E.M., triplicated; for Cell penetration / internalization in T98G cells (in words): 10 µM, immunocytochemistry, compared to original NFL-TBS.40-63
# Outline: as §1
# [3] = tested on: glioma cells; details: shown previously; cited from earlier work
# Source text: However, contrary to the known CPPs, which are composed mostly of arginines and lysines, the NFL-TBS.40-63 peptide contains only 2 arginine residues and no lysine. […] In addition, the cell penetrating activity appears to correlate with a particular structural pattern.
# [4] = Secondary structure estimation from CD spectra; assay type: physicochemical; details: KF/phosphate buffer pH 7.4, 20 µM, Reed's reference set
# Description: Circular dichroism (CD) spectra were measured in a J-810 CD spectrometer (Jasco, Japan) in step mode (bandwidth: 2 nm; interval: 0.1 nm; response time: 0.125 s). The spectra were averaged over 3 scans to increase the signal to noise ratio. To optimize the measurements, a 1 cm×0.2 cm mini-quartz cell with four windows (Hellema, Germany) was used in such a way that the spectra from 260 to 200 nm were measured with a 1 cm pathlength and those between 220 and 185 nm with 0.2 cm pathlength. After normalization for pathlength (1 cm), the superimposition of two separated spectra in the 200–220 nm region was verified and the entire spectra reconstituted. The temperature of measurement was controlled with a Peltier-effect temperature controller, and was usually 20°C. The structural stability of peptides was studied by measuring the variation in CD signal at 220 nm (bandwidth: 10 nm; interval: 1 s; response time: 0.5 s; pathlength: 1 cm) when the temperature was increased by 1°C/min from 20 to 85°C. All the CD experiments were performed with 20 µM peptide under 3 buffer conditions: pure water, 2 mM SDS and 10 mM potassium phosphate pH 7.4 with 200 mM KF.
# The secondary structures were estimated from the CD spectra with Jasco secondary structure estimation software. The spectra from […] were decomposed to α-helix, β-sheet, β-turn and random coil elements using either Reed's or Yang's reference set as reference spectrum of each element as described, [38]. We usually obtained better fits using Reed's reference.
Structure (SMILES),Disintegration of MT (% of cells) [1],Peptide incorporation (% of cells) [2],Cell penetration / internalization (in words) [3],Effect on MT network of T98G / glioma cells (in words) [1],Cell penetration / internalization in T98G cells (in words) [2],random coil content [4] [%],β-sheet content [4] [%]
"CC(C)C[C@H](NC(=O)[C@H](CO)NC(=O)[C@@H](NC(=O)[C@H](CCCNC(=N)N)NC(=O)[C@H](CCCNC(=N)N)NC(=O)[C@H](CO)NC(=O)[C@H](Cc1ccc(O)cc1)NC(=O)[C@H](CO)NC(=O)[C@H](CO)NC(=O)[C@H](CO)NC(=O)[C@H](CO)NC(=O)CNC(=O)[C@H](CO)NC(=O)CCCC[C@@H]1SC[C@@H]2NC(=O)N[C@@H]21)C(C)C)C(=O)N[C@@H](CO)C(=O)N[C@@H](CO)C(=O)N[C@@H](CO)C(=O)N[C@H](C(=O)N1CCC[C@H]1C(=O)N[C@@H](C)C(=O)N[C@@H](CO)C(=O)N[C@@H](Cc1ccc(O)cc1)C(=O)N[C@@H](CO)C(=O)N[C@@H](CO)C(=O)N[C@@H](Cc1ccc(O)cc1)C(N)=O)C(C)C [NFL-SBT, reference compound] (Biotin-SGSSSSYSRRVSLSSSVPASYSSY-NH2)",32.41±0.87 % of cells,0 % of cells,do not penetrate in cells,–,–,–,–
"CC(C)C[C@H](NC(=O)[C@H](CO)NC(=O)CCCC[C@@H]1SC[C@@H]2NC(=O)N[C@@H]21)C(=O)NCC(=O)N[C@@H](CO)C(=O)N1CCC[C@H]1C(=O)N[C@@H](CO)C(=O)N[C@@H](CO)C(=O)N[C@@H](CO)C(=O)N[C@H](C(=O)N[C@@H](CCCNC(=N)N)C(=O)N[C@@H](C)C(=O)N[C@@H](CO)C(=O)N[C@@H](Cc1ccc(O)cc1)C(=O)N[C@@H](CO)C(=O)N[C@@H](CO)C(=O)N[C@@H](CO)C(=O)N[C@@H](CCCNC(=N)N)C(=O)N[C@@H](CO)C(=O)N[C@@H](Cc1ccc(O)cc1)C(=O)N[C@H](C(=O)N[C@@H](Cc1ccc(O)cc1)C(=O)N[C@@H](CO)C(=O)N[C@@H](CO)C(=O)N[C@@H](CO)C(N)=O)C(C)C)C(C)C [NFL-SCR, reference compound] (Biotin-SLGSPSSSVRASYSSSRSYVYSSS-NH2)",18.18±3.2 % of cells,–,do not penetrate in cells,–,–,–,–
CC(C)C[C@H](NC(=O)[C@H](CO)NC(=O)[C@H](CO)NC(=O)[C@H](CO)NC(=O)[C@@H](NC(=O)[C@@H]1CCCN1C(=O)[C@H](C)NC(=O)[C@H](CO)NC(=O)[C@H](Cc1ccc(O)cc1)NC(=O)[C@H](CO)NC(=O)[C@H](CO)NC(=O)[C@H](Cc1ccc(O)cc1)NC(=O)CCCC[C@@H]1SC[C@@H]2NC(=O)N[C@@H]21)C(C)C)C(=O)N[C@@H](CO)C(=O)N[C@H](C(=O)N[C@@H](CCCNC(=N)N)C(=O)N[C@@H](CCCNC(=N)N)C(=O)N[C@@H](COP(=O)(O)O)C(=O)N[C@@H](Cc1ccc(O)cc1)C(=O)N[C@@H](CO)C(=O)N[C@@H](CO)C(=O)N[C@@H](CO)C(=O)N[C@@H](CO)C(=O)NCC(=O)N[C@@H](CO)C(N)=O)C(C)C [Ser17SerP] (Biotin-YSSYSAPVSSSLSVRR[pS]YSSSSGS-NH2),22.9±1.3 % of cells,32.8±8.7 % of cells,–,not altered,decreased internalization,53,40
CC(C)C[C@H](NC(=O)[C@H](CO)NC(=O)[C@H](CO)NC(=O)[C@H](CO)NC(=O)[C@@H](NC(=O)[C@@H]1CCCN1C(=O)[C@H](C)NC(=O)[C@H](CO)NC(=O)[C@H](Cc1ccc(O)cc1)NC(=O)[C@H](CO)NC(=O)[C@H](CO)NC(=O)[C@H](Cc1ccc(O)cc1)NC(=O)CCCC[C@@H]1SC[C@@H]2NC(=O)N[C@@H]21)C(C)C)C(=O)N[C@@H](CO)C(=O)N[C@H](C(=O)N[C@@H](CCCNC(=N)N)C(=O)N[C@@H](CCCNC(=N)N)C(=O)N[C@@H](CO)C(=O)N[C@@H](Cc1ccc(O)cc1)C(=O)N[C@@H](COP(=O)(O)O)C(=O)N[C@@H](CO)C(=O)N[C@@H](CO)C(=O)N[C@@H](CO)C(=O)NCC(=O)N[C@@H](CO)C(N)=O)C(C)C [Ser19SerP] (Biotin-YSSYSAPVSSSLSVRRSY[pS]SSSGS-NH2),19.4±2.1 % of cells,27.3±12.1 % of cells,–,not altered,decreased internalization,60,34
CC(C)C[C@H](NC(=O)[C@H](CO)NC(=O)[C@H](CO)NC(=O)[C@H](CO)NC(=O)[C@@H](NC(=O)[C@@H]1CCCN1C(=O)[C@H](C)NC(=O)[C@H](CO)NC(=O)[C@H](Cc1ccc(O)cc1)NC(=O)[C@H](CO)NC(=O)[C@H](CO)NC(=O)[C@H](Cc1ccc(O)cc1)NC(=O)CCCC[C@@H]1SC[C@@H]2NC(=O)N[C@@H]21)C(C)C)C(=O)N[C@@H](CO)C(=O)N[C@H](C(=O)N[C@@H](CCCNC(=N)N)C(=O)N[C@@H](CCCNC(=N)N)C(=O)N[C@@H](CO)C(=O)N[C@@H](C)C(=O)N[C@@H](CO)C(=O)N[C@@H](CO)C(=O)N[C@@H](CO)C(=O)N[C@@H](CO)C(=O)NCC(=O)N[C@@H](CO)C(N)=O)C(C)C [Tyr18Ala] (Biotin-YSSYSAPVSSSLSVRRSASSSSGS-NH2),16.0±2.8 % of cells,7.9±0.9 % of cells,–,–,–,–,–
CC(C)C[C@H](NC(=O)[C@H](CO)NC(=O)[C@H](CO)NC(=O)[C@H](CO)NC(=O)[C@H](C)NC(=O)[C@@H]1CCCN1C(=O)[C@H](C)NC(=O)[C@H](CO)NC(=O)[C@H](Cc1ccc(O)cc1)NC(=O)[C@H](CO)NC(=O)[C@H](CO)NC(=O)[C@H](Cc1ccc(O)cc1)NC(=O)CCCC[C@@H]1SC[C@@H]2NC(=O)N[C@@H]21)C(=O)N[C@@H](CO)C(=O)N[C@H](C(=O)N[C@@H](CCCNC(=N)N)C(=O)N[C@@H](CCCNC(=N)N)C(=O)N[C@@H](CO)C(=O)N[C@@H](Cc1ccc(O)cc1)C(=O)N[C@@H](CO)C(=O)N[C@@H](CO)C(=O)N[C@@H](CO)C(=O)N[C@@H](CO)C(=O)NCC(=O)N[C@@H](CO)C(N)=O)C(C)C [Val8Ala] (Biotin-YSSYSAPASSSLSVRRSYSSSSGS-NH2),23.6±2.1 % of cells,9.9±3.4 % of cells,–,–,–,–,–
CC(C)C[C@H](NC(=O)[C@H](CO)NC(=O)[C@H](CO)NC(=O)[C@H](CO)NC(=O)[C@@H](NC(=O)[C@@H]1CCCN1C(=O)[C@H](C)NC(=O)[C@H](CO)NC(=O)[C@H](Cc1ccc(O)cc1)NC(=O)[C@H](CO)NC(=O)[C@H](CO)NC(=O)[C@H](Cc1ccc(O)cc1)NC(=O)CCCC[C@@H]1SC[C@@H]2NC(=O)N[C@@H]21)C(C)C)C(=O)N[C@@H](CO)C(=O)N[C@@H](C)C(=O)N[C@@H](CCCNC(=N)N)C(=O)N[C@@H](CCCNC(=N)N)C(=O)N[C@@H](CO)C(=O)N[C@@H](Cc1ccc(O)cc1)C(=O)N[C@@H](CO)C(=O)N[C@@H](CO)C(=O)N[C@@H](CO)C(=O)N[C@@H](CO)C(=O)NCC(=O)N[C@@H](CO)C(N)=O [Val14Ala] (Biotin-YSSYSAPVSSSLSARRSYSSSSGS-NH2),13.8±3.9 % of cells,0 % of cells,–,does not affect the MT network,fails to enter in cells,–,–
CC(C)C[C@H](NC(=O)[C@H](CO)NC(=O)[C@H](CC(C)C)NC(=O)[C@H](CO)NC(=O)[C@H](CO)NC(=O)[C@H](CO)NC(=O)[C@@H](NC(=O)[C@@H]1CCCN1C(=O)[C@H](C)NC(=O)[C@H](CO)NC(=O)[C@H](Cc1ccc(O)cc1)NC(=O)[C@H](CO)NC(=O)[C@H](CO)NC(=O)[C@H](Cc1ccc(O)cc1)NC(=O)CCCC[C@@H]1SC[C@@H]2NC(=O)N[C@@H]21)C(C)C)C(=O)N[C@@H](CCCNC(=N)N)C(=O)N[C@@H](CCCNC(=N)N)C(=O)N[C@@H](CO)C(=O)N[C@@H](Cc1ccc(O)cc1)C(=O)N[C@@H](CO)C(=O)N[C@@H](CO)C(=O)N[C@@H](CO)C(=O)N[C@@H](CO)C(=O)NCC(=O)N[C@@H](CO)C(N)=O [Val14Leu] (Biotin-YSSYSAPVSSSLSLRRSYSSSSGS-NH2),39.2±2.4 % of cells,44.2±2.2 % of cells,–,–,–,–,–
